The source of these data is PubChem BioAssay (NCI).

Assay in all cases: growth of human tumour cells (NCI), 48 h
For assay [1], the system named is 786-0 renal.
The test system of assay [2] is COLO 205 colon.
Assay [3] deals with A498 renal.
Assay [4] deals with SF-268 CNS.
Assay [5] concerns MCF7 breast.
The test system of assay [6] is SR leukemia.
Assay [7] has as its system LOX IMVI melanoma.
For assay [8], the system named is MDA-N.
Assay [9] relates to EKVX NSCLC.
Assay [10] relates to MDA-MB-435.
Assay [11] concerns HS 578T breast.

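These data come from cells grown in 96-well plates and exposed to compound for 48 hours at five concentrations. TGI: concentration producing complete growth inhibition.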 Where a SMILES comes first, the peptide text is derived from it. The star is where a group is joined. Bn = c1ccc(C*)cc1 Some results are limits rather than exact numbers.

Turning to `C=C1C(=O)OC2/C=C(/C)C3(O)OC(C)(CC(OC(=O)C(C)C)C12)CC3OC(C)=O` (configuration not stated), the TGI is > 100 µM in [1]; 18.1 µM in assay [2]; 15.5 µM in assay [3]; > 100 µM in assay [4]; 26.3 µM in assay [5]; > 31.5 µM in assay [6]. Besides, the TGI in assay [7] was > 68.8 µM; in assay [8], 4.94 µM; in assay [9], 46.5 µM; in assay [10] it was > 43.8 µM.

As for `COC(=O)C1=C(O)C(C(=O)OC)[C@@]2(O)[C@@H](C(=O)OC)[C@H](C)[C@@H](C)[C@@H]1[C@@H]2C(=O)OC` (some centres not stated), the TGI in assay [11], in assay [3], in assay [4], in assay [5], in assay [6] and in assay [7] was > 100 µM in each case. Moreover, the TGI in assay [8] is 50.1 µM; in assay [9] it was > 100 µM; in [10], 39.2 µM.

Take `CCOC(=O)C(C)c1nc2c(Cl)c3ncccc3cc2[nH]c1=O` (configuration not stated): the TGI in assay [11] is 90.4 µM; in assay [1], > 100 µM; in assay [2], > 100 µM; in assay [3], > 100 µM; in assay [4], > 100 µM; in assay [6] it was 99.2 µM. Also, the TGI in assay [7], in assay [8], in assay [9] and in assay [10] was > 100 µM in each case.

For `OCC(O)C(O)C(O)/C=N/Nc1nc(O)c(/C=C2\C=Nc3ccccc32)[nH]1` (configuration not stated), the TGI in assay [11], in assay [1], in [2], in assay [4], in assay [5] and in [7] was > 100 µM each time. Moreover, the TGI in assay [8], in assay [9] and in assay [10] was > 100 µM each time.

As to `O=C1CCc2ccc3c(c21)CC1(Cc2ccccc2C1)C3`, the TGI in [11] is > 100 µM; in assay [1], 48.1 µM; in [2], > 100 µM; in assay [4] it was > 100 µM; in assay [5] it was > 100 µM; in [6], 78.8 µM. Besides, the TGI is 20.1 µM in assay [7], > 100 µM in assay [8] and > 100 µM in assay [10].

As for `COC(=O)C(CC(C)C)NC(=O)C(N)Cc1ccc(OCc2ccccc2)cc1` (configuration not stated) (H-Tyr(Bn)-Leu-OMe; configuration not given here), the TGI in assay [11], in [1], in [2], in assay [3], in assay [4] and in assay [6] was > 10 µM throughout. The TGI in assay [7], in assay [8], in assay [9] and in assay [10] was > 10 µM each time.

Turning to `O/C(=C\c1nc2ccccc2nc1NC12CC3CC(CC(C3)C1)C2)c1ccc(Br)cc1`, the TGI in assay [11], in assay [1], in assay [2], in assay [3], in assay [4] and in assay [5] was > 10 µM each time. The TGI in assay [7], in assay [8], in assay [9] and in assay [10] was > 10 µM each time.

On to `COC(=O)[C@H](Cc1ccccc1)NC(=O)c1ccc(CNC(=O)/C=C/c2cccc(Oc3ccccc3)c2)cc1`, for which the TGI is 46.3 µM in [11]; > 100 µM in assay [1]; 42.1 µM in [2]; 51.7 µM in assay [3]; 59.3 µM in assay [4]; > 100 µM in [5]. Besides, the TGI was > 100 µM in assay [6], 15.3 µM in assay [8], > 100 µM in assay [9] and 28.3 µM in [10].

As to `COc1cc(CNc2nc3cc(C(F)(F)F)ccc3nc2-c2ccccc2)cc(OC)c1OC`, the TGI was > 100 µM in assay [11]; > 100 µM in assay [1]; 37.3 µM in [2]; > 100 µM in [4]; 22.4 µM in assay [5]; > 100 µM in [6]. Moreover, the TGI in assay [7] is > 100 µM; in assay [8], > 100 µM; in assay [9], 50.2 µM; in assay [10] it was > 100 µM.

In the case of `COc1cc([C@@H]2c3cc4c(cc3[C@@H](c3c(O)cc(O)c5c3O[C@H](c3ccc(O)c(O)c3)[C@@H](O)C5)[C@H]3COC(=O)[C@H]23)OCO4)cc(OC)c1O`, the TGI in assay [11], in [1], in assay [2], in [3], in assay [4] and in assay [5] was > 100 µM throughout. In addition, the TGI in [7], in assay [8], in [9] and in [10] was > 100 µM each time.

As for `NS(=O)(=O)c1ccc(NC(NC(=O)C(C(F)(F)F)C(F)(F)F)(C(F)(F)F)C(F)(F)F)cc1`, the TGI in assay [11], in [1], in [2], in assay [4], in assay [5] and in [6] was > 100 µM in each case. Also, the TGI in assay [7], in assay [8], in assay [9] and in assay [10] was > 100 µM each time.

On to `COc1ccc(N=NC(=Nc2ccc(F)cc2)c2ccc(N(CCC#N)CCC#N)cc2)cc1`, for which the TGI in [11] is 86.4 µM; in assay [1] it was > 100 µM; in assay [2], > 100 µM; in assay [3], 76.3 µM; in [4] it was > 100 µM; in assay [5], > 100 µM. Further, the TGI in assay [6], in [8], in assay [9] and in assay [10] was > 100 µM each time.

As for `O=C(O)CSC(NC(=O)C(C(F)(F)F)C(F)(F)F)(C(F)(F)F)C(F)(F)F`, the TGI in [11], in assay [1], in assay [2], in assay [3], in [4] and in assay [6] was > 100 µM throughout. The TGI in assay [7], in [8], in assay [9] and in assay [10] was > 100 µM in each case.
